What was measured:
[1] = target: T1, human progesterone receptor B (Homo sapiens, UniProt P06401); experiment: Progesterone receptor-antagonistic action in stably transfected SK-N-MC cells, MTV-LUC reporter (PR-B); type: cell-based; settings: antagonistic efficacy vs 0.1 nmol/l promegestone
T1 construct: expressed in transfected cells; host or cells: SK-N-MC human neuroblastoma cells, stably transfected
T1 sequence (P06401 1-933): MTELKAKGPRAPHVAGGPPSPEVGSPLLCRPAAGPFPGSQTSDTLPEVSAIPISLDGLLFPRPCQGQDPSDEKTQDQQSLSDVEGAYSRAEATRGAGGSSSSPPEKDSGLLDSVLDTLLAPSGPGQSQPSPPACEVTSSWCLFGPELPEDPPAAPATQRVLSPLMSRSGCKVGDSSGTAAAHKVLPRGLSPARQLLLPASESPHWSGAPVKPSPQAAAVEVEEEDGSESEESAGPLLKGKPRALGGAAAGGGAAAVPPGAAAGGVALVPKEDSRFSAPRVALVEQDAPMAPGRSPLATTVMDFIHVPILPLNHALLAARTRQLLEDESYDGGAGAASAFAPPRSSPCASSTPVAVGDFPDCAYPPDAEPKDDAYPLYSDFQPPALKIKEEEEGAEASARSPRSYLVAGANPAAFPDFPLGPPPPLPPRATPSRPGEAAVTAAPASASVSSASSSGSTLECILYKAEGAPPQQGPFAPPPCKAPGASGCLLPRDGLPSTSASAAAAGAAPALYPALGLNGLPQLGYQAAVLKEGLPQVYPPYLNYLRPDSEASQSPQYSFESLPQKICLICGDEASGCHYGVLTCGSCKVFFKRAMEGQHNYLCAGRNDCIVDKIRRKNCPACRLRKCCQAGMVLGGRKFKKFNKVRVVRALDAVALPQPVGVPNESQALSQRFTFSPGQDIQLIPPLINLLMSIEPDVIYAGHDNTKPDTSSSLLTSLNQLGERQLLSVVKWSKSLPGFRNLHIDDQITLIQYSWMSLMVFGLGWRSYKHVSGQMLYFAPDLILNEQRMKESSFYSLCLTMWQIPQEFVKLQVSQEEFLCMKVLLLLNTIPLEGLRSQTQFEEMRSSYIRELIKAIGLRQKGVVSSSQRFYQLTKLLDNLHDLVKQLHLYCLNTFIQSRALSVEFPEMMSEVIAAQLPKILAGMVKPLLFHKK
Experimental: EXAMPLE 16 PROGESTERONE RECEPTOR-ANTAGONISTIC ACTION IN STABLE TRANSFECTANTS OF HUMAN NEUROBLASTOMA CELLS (SK-N-MC CELLS) WITH THE HUMAN PROGESTERONE A OR PROGESTERONE B RECEPTOR AND AN MTV-LUC REPORTER CONSTRUCT
SK-N-MC cells (human neuroblastoma cells), which have been stably transfected with plasmids, which express the human progesterone receptor B (pRChPR-B-neo) or the human progesterone receptor A (pRChPR-A-neo) and a reporter construct (pMMTV-LUC), were incubated for 24 hours either in the absence (negative control) or in the presence of increasing amounts of the respective test compound (0.01 nmol/l, 0.1 nmol/l 1 nmol/l, 10 nmol/l, 100 nmol/l and 1 μmol/l), in order to determine the agonistic efficacy. As positive control of reporter gene induction, the cells were treated with the synthetic gestagen promegestone (0.01 nmol/l, 0.1 nmol/l, 1 nmol/l, 10 nmol/l, 100 nmol/l and 1 μmol/l). For determination of the antagonistic activity, the cells were treated with 0.1 nmol/1 promegestone and additionally with increasing amounts of the respective test compound (0.01 nmol/l, 0.1 nmol/l, 1 nmol/l, 10 nmol/l, 100 nmol/l and 1 μmol/l). The activity of the LUC reporter gene (LUC=luciferase) was determined in the cell lysates and was measured as RLU (relative light units). All measured values are given as percentage efficacy and as EC50 or IC50 concentrations.
11β-(4-Acetylphenyl)-20,20,21,21,21-pentafluoro-17-hydroxy-19-nor-17α-pregna-4,9-dien-3-one and 20,20,21,21,21-pentafluoro-17-hydroxy-11β-[4-(hydroxyacetyl)phenyl]-19-nor-17α-pregna-4,9-dien-3-one, very potent and therefore preferred examples from WO98/34947 and WO2008/058767, were tested as comparative compounds along with the test compound.

rodents and non-rodents = settings: in vivo
cardiovascular system = experiment: Action on the cardiovascular system (incl. ECG) of anaesthetized beagle dogs; type: in vivo
Experimental: EXAMPLE 20 INVESTIGATION OF THE ACTION ON THE CARDIOVASCULAR SYSTEM (INCL. ECG) OF ANAESTHETIZED BEAGLE DOGS
(11β,17β)-17-Hydroxy-11-[4-(methylsulphonyl)phenyl]-17-(pentafluoroethy)estra-4,9-dien-3-one, dissolved in a mixture of PEG 400 and HP-β-CD (60% PEG 400, 40% HP-β-CD 30%), was administered intravenously to anaesthetized female beagle dogs. The body weight of the dogs was >9 kg. 3 dogs were treated per group and additionally 3 dogs in the control group. 0.1; 0.33 and 1 mg/kg of the substance was administered in 3 consecutive infusions, in each case over a period of 30 minutes. The maximum amount of vehicle was 0.4 ml per kg for 30 minutes. Blood samples were taken from the animals at various time points. The highest plasma level (average for all 3 animals) was 1650 ng/ml at the end of the third infusion.

[2] = Chemical stability against temperature, light and oxidative stress; type: physicochemical; settings: compared with analogue with alkanoyl or hydroxyalkanoyl group
pregnant rats = experiment: Abortion test on female rats (termination of early pregnancy); type: in vivo, rat; settings: d5-d7 p.c., autopsy d9 p.c.
Experimental: EXAMPLE 17 ABORTION TEST ON FEMALE RATS
The action of progesterone and of the progesterone receptor is a fundamental precondition for successful pregnancy or gestation in mammals. The progesterone-antagonistic action of the compounds according to the invention was tested on pregnant rats (6 rats per group) on day 5 to 7 post coitum with conventional housing and feeding conditions.
After successful hand mating, the pregnant animals (presence of sperm in the vaginal smear on day 1 of pregnancy=d1 p.c.) were randomized and divided into the treatment group and the control group. The animals then each received subcutaneously or orally 0.15; 0.5; 1.5 or 5 mg/kg of the test compound or 1.0 ml/kg of vehicle (benzyl benzoate/castor oil: 1+4 [v/v]) daily from day 5 to day 7 (d5-d7 p.c.).
Autopsy was carried out on day 9 (d9 p.c.). As a characteristic of progesterone receptor antagonistic action, the uterus was examined for the presence of nidation sites. Complete absence, or also the presence of pathological, haemorrhagic or otherwise abnormal nidation sites on day 9 (d9 p.c.) was assessed as abortion.

Compound: C[C@]12C[C@H](c3ccc(S(C)(=O)=O)cc3)C3=C4CCC(=O)C=C4CC[C@H]3[C@@H]1CC[C@@]2(O)C(F)(F)C(F)(F)F [Example 4, (11β,17β)-17-Hydroxy-11-[4-(methylsulphonyl)phenyl]-17-(pentafluoroethyl)estra-4,9-dien-3-one]
- Progesterone receptor B (PR-B) Efficacy [1]: 100%
- safety profile (rodents and non-rodents): especially favourable safety profile
- highest plasma level (average for all 3 animals) (cardiovascular system; end of third infusion, i.v. 0.1, 0.33 and 1 mg/kg consecutive 30 minute infusions): 1650 ng/mL
- effects on the cardiovascular system (pulmonary artery pressure, systemic arterial blood pressure, heart rate, ECG) (cardiovascular system; i.v. 0.1, 0.33 and 1 mg/kg, in comparison with the control): no biologically relevant effects
- oxidation sensitivity [2]: surprisingly low oxidation sensitivity
- stability under the influence of UV light [2]: surprisingly high stability
- stability under thermal load [2]: surprisingly high stability under thermal load
- Abortion rate (pregnant rats; daily dose 0.15 mg/kg s.c. or p.o.): 40%
- Abortion rate (pregnant rats; daily dose 0.5 mg/kg s.c. or p.o.): 100%
- Abortion rate (pregnant rats; daily dose 1.5 mg/kg s.c. or p.o.): 100%
- Abortion rate (pregnant rats; daily dose 5.0 mg/kg s.c. or p.o.): 100%
